Data from patent US10668123B2, “Capsicum compositions and uses thereof” (OmniActive Health Technologies Limited, priority 2015, dated 2020).

Test system: 3T3L1 cells
Assay: Lipolysis in 3T3L1 cells, glycerol release as biomarker
Format: cell-based
Conditions: positive control, time and concentration not given
Experimental: Pancreatic lipase activity was measured using 4-methylumbelliferyl oleate (MU Oleate) as a substrate via a fluorescence kinetic assay. 3T3L1 cells were treated with capsicum composition (100 μg/1111) at different time points such as 1 hour (h), 2 h, 4 h and 24 h. […] was used as the positive control. Lipolysis was assessed using glycerol release as a biomarker.
Capsicum composition enhanced the lipolysis after 24 h treatment. The ratio of released glycerol/protein content was 1.59, compared to the positive control:isoproterenol (ratio: 1.60).

## CC(C)NCC(O)c1ccc(O)c(O)c1 (stereo not shown) [Isoproterenol]
  Ratio treated/non treated (lipolysis): 1.60
